Data published in US20240228489A1, “POSITIVE ALLOSTERIC MODULATORS OF THE MUSCARINIC ACETYLCHOLINE RECEPTOR M1” (Vanderbilt University, priority 2021, published 2024).

Assays:
human mAChR M1 [1] = target: T1, human mAChR M1 (Homo sapiens, UniProt P11229); assay: mAChR M1 cell-based functional assay (calcium mobilization), PAM mode: increase in the EC20 acetylcholine response
T1 sequence (P11229 1-460): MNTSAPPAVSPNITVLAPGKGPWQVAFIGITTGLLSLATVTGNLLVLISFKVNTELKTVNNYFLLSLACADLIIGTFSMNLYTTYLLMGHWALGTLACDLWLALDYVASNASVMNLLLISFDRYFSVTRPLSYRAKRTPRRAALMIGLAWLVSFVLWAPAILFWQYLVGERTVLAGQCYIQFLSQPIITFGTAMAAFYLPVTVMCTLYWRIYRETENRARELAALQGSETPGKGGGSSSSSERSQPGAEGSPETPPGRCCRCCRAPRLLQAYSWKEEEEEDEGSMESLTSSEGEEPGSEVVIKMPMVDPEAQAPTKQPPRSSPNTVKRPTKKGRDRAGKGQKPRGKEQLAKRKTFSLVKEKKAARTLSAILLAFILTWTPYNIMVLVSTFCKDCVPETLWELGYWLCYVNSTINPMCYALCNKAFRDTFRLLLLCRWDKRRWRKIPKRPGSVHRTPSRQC
Procedure, shortened: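 PAM readout is the concentration-dependent rise in the EC20 acetylcholine calcium signal, fitted to a four-parameter logistic (EC50, Emax). Compounds were preincubated from 4 s before ACh at 144 s (EC20) and 230 s (EC80). hM1-expressing CHO-K1 cells loaded with Fluo-4, FDSS ratio read.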

human mAChR M1 [2] = target: T1, human mAChR M1; assay: mAChR M1 cell-based functional assay (calcium mobilization), agonist mode: compound alone, Emax relative to acetylcholine maximum; details: for Agonist Activity Human M1 EC50 / EC50: human mAChR M1
Procedure, shortened: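 Agonist activity is the concentration-dependent rise in intracellular calcium (Fluo-4, 1 Hz read) after compound addition, measured before any acetylcholine was added, in stable hM1 CHO-K1 cells. Curves were 11-point, 1:3 dilutions fitted by four-parameter logistic. Emax is given as a fraction of maximal acetylcholine response.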

[3] = relative to the maximum for acetylcholine

Structure (SMILES)	EC50 (human mAChR M1 [1]) [nM]	Emax (human mAChR M1 [1]) [%]	Agonist Activity Human M1 EC50 (human mAChR M1 [2])	Emax (human mAChR M1 [2]; [3]) [%]	EC50 (human mAChR M1 [2]) [nM]	PAM Activity Emax (human mAChR M1 [1]) [%]	Agonist Activity Emax (human mAChR M1 [2]; [3]) [%]
[2H]C1([2H])c2ncccc2C(=O)N1Cc1c(F)cc(-c2cccc3c2cnn3C([2H])([2H])[2H])cc1F [Compound 67, 6-(2,6-difluoro-4-(1-(methyl-d3)-1H-indazol-4-yl)benzyl)-6,7-dihydro-5H-pyrrolo[3,4-b]pyridin-5-one-7,7-d2]	823	71	Inactive	2	–	–	–
[2H]C1([2H])c2ncccc2C(=O)N1Cc1c(F)cc(-c2ccc(F)c3c2cnn3C([2H])([2H])[2H])cc1F [Compound 68, 6-(2,6-difluoro-4-(7-fluoro-1-(methyl-d3)-1H-indazol-4-yl)benzyl)-6,7-dihydro-5H-pyrrolo[3,4-b]pyridin-5-one-7,7-d2]	> 10000	64	Inactive	2	–	–	–
[2H]C1([2H])c2ncccc2C(=O)N1Cc1c(F)cc(-c2ccc(OC)c3c2cnn3C([2H])([2H])[2H])cc1F [Compound 69, 6-(2,6-difluoro-4-(7-methoxy-1-(methyl-d3)-1H-indazol-4-yl)benzyl)-6,7-dihydro-5H-pyrrolo[3,4-b]pyridin-5-one-7,7-d2]	2190	68	Inactive	2	–	–	–
[2H]C1([2H])c2ncccc2C(=O)N1Cc1c(F)cc(-c2ccc(C)c3c2cnn3C([2H])([2H])[2H])cc1F [Compound 70, 6-(2,6-difluoro-4-(7-methyl-1-(methyl-d3)-1H-indazol-4-yl)benzyl)-6,7-dihydro-5H-pyrrolo[3,4-b]pyridin-5-one-7,7-d2]	1220	65	Inactive	2	–	–	–
[2H]C1([2H])c2ncccc2C(=O)N1Cc1ccc(-c2cc(F)cc3nn(C)cc23)cc1 [Compound 72, 6-(4-(6-fluoro-2-methyl-2H-indazol-4-yl)benzyl)-6,7-dihydro-5H-pyrrolo[3,4-b]pyridin-5-one-7,7-d2]	472	75	Inactive	4	–	–	–
[2H]C1([2H])c2ncccc2C(=O)N1Cc1c(F)cc(-c2ccc(Cl)c3nn(C([2H])([2H])[2H])cc23)cc1F [Compound 73, 6-(4-(7-chloro-2-(methyl-d3)-2H-indazol-4-yl)-2,6-difluorobenzyl)-6,7-dihydro-5H-pyrrolo[3,4-b]pyridin-5-one-7,7-d2]	170	77	Inactive	1	–	–	–
[2H]C1([2H])c2ncccc2C(=O)N1Cc1c(F)cc(-c2ccc(C(F)(F)F)c3nn(C([2H])([2H])[2H])cc23)cc1F [Compound 74, 6-(2,6-difluoro-4-(2-(methyl-d3)-7-(trifluoromethyl)-2H-indazol-4-yl)benzyl)-6,7-dihydro-5H-pyrrolo[3,4-b]pyridin-5-one-7,7-d2]	592	81	Inactive	1	–	–	–
[2H]C([2H])([2H])Oc1cnc2c(c1)C(=O)N(Cc1c(F)cc(-c3cccc4nn(C([2H])([2H])[2H])cc34)cc1F)C2([2H])[2H] [Compound 78, 6-(2,6-difluoro-4-(2-(methyl-d3)-2H-indazol-4-yl)benzyl)-3-(methoxy-d3)-6,7-dihydro-5H-pyrrolo[3,4-b]pyridin-5-one-7,7-d2]	100	77	Inactive	6	–	–	–
[2H]C1([2H])c2ncccc2C(=O)N1Cc1c(F)cc(-c2cn(C)c(=O)c3c2cnn3C)cc1F [Compound 80, 4-(3,5-difluoro-4-((5-oxo-5,7-dihydro-6H-pyrrolo[3,4-b]pyridin-6-yl-7,7-d2)methyl)phenyl)-1,6-dimethyl-1,6-dihydro-7H-pyrazolo[3,4-c]pyridin-7-one]	2230	59	Inactive	1	–	–	–
[2H]C([2H])([2H])Oc1cnc2c(c1)C(=O)N(Cc1ccc(-c3cccc4nn(C)cc34)cc1F)C2([2H])[2H] [Compound 82, 6-(2-fluoro-4-(2-methyl-2H-indazol-4-yl)benzyl)-3-(methoxy-d3)-6,7-dihydro-5H-pyrrolo[3,4-b]pyridin-5-one-7,7-d2]	120	79	–	25	4930	–	–
[2H]C([2H])([2H])Oc1cnc2c(c1)C(=O)N(Cc1ccc(-c3cccc4nn(C)cc34)cc1)C2([2H])[2H] [Compound 83, 3-(methoxy-d3)-6-(4-(2-methyl-2H-indazol-4-yl)benzyl)-6,7-dihydro-5H-pyrrolo[3,4-b]pyridin-5-one-7,7-d2]	244	80	–	19	6230	–	–

Now from value to compound:

EC50 (human mAChR M1 [1]) [nM]	Emax (human mAChR M1 [1]) [%]	Agonist Activity Human M1 EC50 (human mAChR M1 [2])	Emax (human mAChR M1 [2]; [3]) [%]	EC50 (human mAChR M1 [2]) [nM]	PAM Activity Emax (human mAChR M1 [1]) [%]	Agonist Activity Emax (human mAChR M1 [2]; [3]) [%]	Structure (SMILES)
698	75	Inactive	1	–	–	–	[2H]C1([2H])c2ncccc2C(=O)N1Cc1ccc(-c2cc(F)cc3nn(C)cc23)cc1F [Compound 71, 6-(2-fluoro-4-(6-fluoro-2-methyl-2H-indazol-4-yl)benzyl)-6,7-dihydro-5H-pyrrolo[3,4-b]pyridin-5-one-7,7-d2]
626	55	Inactive	1	–	–	–	[2H]C1([2H])c2ncccc2C(=O)N1Cc1c(F)cc(-c2cc(Cl)cc3nn(C)cc23)cc1F [Compound 75, 6-(4-(6-chloro-2-methyl-2H-indazol-4-yl)-2,6-difluorobenzyl)-6,7-dihydro-5H-pyrrolo[3,4-b]pyridin-5-one-7,7-d2]
58	78	–	29	3740	–	–	[2H]C1([2H])c2ncccc2C(=O)N1Cc1c(F)cc(-c2cc(OC)c3nn(C)cc3c2)cc1F [Compound 76, 6-(2,6-difluoro-4-(7-methoxy-2-methyl-2H-indazol-5-yl)benzyl)-6,7-dihydro-5H-pyrrolo[3,4-b]pyridin-5-one-7,7-d2]
1350	–	Inactive	–	–	47	1	[2H]C1([2H])c2ncccc2C(=O)N1Cc1c(F)cc(-c2cc(F)c(Cl)c3nn(C)cc23)cc1F [Compound 77, 6-(4-(7-chloro-6-fluoro-2-methyl-2H-indazol-4-yl)-2,6-difluorobenzyl)-6,7-dihydro-5H-pyrrolo[3,4-b]pyridin-5-one-7,7-d2]
793	79	–	16	≥ 10000	–	–	[2H]C1([2H])c2ncccc2C(=O)N1Cc1c(F)cc(-c2cn(C)c(=O)c3nn(C)cc23)cc1F [Compound 79, 4-(3,5-difluoro-4-((5-oxo-5,7-dihydro-6H-pyrrolo[3,4-b]pyridin-6-yl-7,7-d2)methyl)phenyl)-2,6-dimethyl-2,6-dihydro-7H-pyrazolo[3,4-c]pyridin-7-one]
159	48	Inactive	2	–	–	–	[2H]C1([2H])c2ncccc2C(=O)N1Cc1c(F)cc(-c2cc(C(F)F)cc3nn(C)cc23)cc1F [Compound 81, 6-(4-(6-(difluoromethyl)-2-methyl-2H-indazol-4-yl)-2,6-difluorobenzyl)-6,7-dihydro-5H-pyrrolo[3,4-b]pyridin-5-one-7,7-d2]
